Holding throughout (conditions): time 48-72 hrs, read-out: Activity
The subject of one series is MCF7. Nature of the series: Antiproliferative activity against human MCF7 cells assessed as cell viability at 100 uM incubated for 48 to 72 hrs by MTT assay. Format: functional. In general terms: Tetrazolium assays rely on reduction of a dye to a coloured formazan, in cell work by metabolically active cells.
The test system of another series is MDA-MB-231. The experiment in a line: Antiproliferative activity against human MDA-MB-231 cells assessed as cell viability at 100 uM incubated for 48 to 72 hrs by MTT assay. It is filed as functional.
Another series concerns SJSA-1. Nature of the series: Antiproliferative activity against human SJSA-1 cells assessed as cell viability at 100 uM incubated for 48 to 72 hrs by MTT assay. It is filed as functional.
A further series deals with HepG2. Nature of the series: Antiproliferative activity against human HepG2 cells assessed as cell viability at 100 uM incubated for 48 to 72 hrs by MTT assay. It is filed as functional.
Series [1] in a line: Cytotoxicity against mouse HT-22 cells assessed as cell viability at 100 uM incubated for 48 to 72 hrs by MTT assay. Format: toxicity, cell-based.

SMILES strings stand for the structures.

Turning to `Cc1ncsc1-c1ccc([C@H](C)NC(=O)[C@@H]2C[C@@H](O)CN2C(=O)[C@@H](NC(=O)CCCc2cn(CCOCCNC(=O)[C@H](C)CC(=O)C[C@@H](C)[C@H]3C[C@H](O)[C@@]4(C)C5=C(C(=O)C[C@]34C)[C@@]3(C)CCC(=O)C(C)(C)[C@@H]3C[C@@H]5O)nn2)C(C)(C)C)cc1`, the viability at 100 µM is 66.9% with MCF7; 41.8% with MDA-MB-231; 58.4% in the series on SJSA-1; 105% in the series on HepG2; 97% in series [1].

As for `COc1cccc2c1C(=O)c1c(O)c3c(c(O)c1C2=O)C[C@@](O)(C(=O)CO)C[C@@H]3O[C@H]1C[C@H](N)[C@H](O)[C@H](C)O1` [DOXORUBICIN], the viability at 100 µM in the series with MCF7 was 57.5%; in the series with MDA-MB-231 it was 39.4%; with SJSA-1 it was 56.2%; with HepG2 it was 64.3%.

For the compound `C[C@H](CC(=O)C[C@@H](C)[C@H]1C[C@H](O)[C@@]2(C)C3=C(C(=O)C[C@]12C)[C@@]1(C)CCC(=O)C(C)(C)[C@@H]1C[C@@H]3O)C(=O)NCc1cn(CCOCCOCCOCCNc2cccc3c2C(=O)N(C2CCC(=O)NC2=O)C3=O)nn1` (some centres undefined), the viability at 100 µM in the series with MCF7 was 83.4%; in the series with MDA-MB-231 it was 74.7%; in the series with SJSA-1 it was 67%; in the series with HepG2 it was 91%; in series [1], 78.2%.

With `Cc1ncsc1-c1ccc([C@H](C)NC(=O)[C@@H]2C[C@@H](O)CN2C(=O)[C@@H](NC(=O)CCCCc2cn(CCOCCNC(=O)[C@H](C)CC(=O)C[C@@H](C)[C@H]3C[C@H](O)[C@@]4(C)C5=C(C(=O)C[C@]34C)[C@@]3(C)CCC(=O)C(C)(C)[C@@H]3C[C@@H]5O)nn2)C(C)(C)C)cc1`, the viability at 100 µM was 81.9% in the series with MCF7; 70.8% in the series on MDA-MB-231; 88.2% in the series on SJSA-1; 94% in the series with HepG2; 97% in series [1].

As for `Cc1ncsc1-c1ccc([C@H](C)NC(=O)[C@@H]2C[C@@H](O)CN2C(=O)[C@@H](NC(=O)CCCc2cn(CCCNC(=O)[C@H](C)CC(=O)C[C@@H](C)[C@H]3C[C@H](O)[C@@]4(C)C5=C(C(=O)C[C@]34C)[C@@]3(C)CCC(=O)C(C)(C)[C@@H]3C[C@@H]5O)nn2)C(C)(C)C)cc1`, the viability at 100 µM in the series with MCF7 was found to be 87%; with MDA-MB-231, 99.1%; with SJSA-1, 81.5%; in the series on HepG2, 90.1%; in series [1], 89.1%.

On to `C[C@H](CC(=O)C[C@@H](C)[C@H]1C[C@H](O)[C@@]2(C)C3=C(C(=O)C[C@]12C)[C@@]1(C)CCC(=O)C(C)(C)[C@@H]1C[C@@H]3O)C(=O)NCCOCCOCCn1cc(CNc2cccc3c2C(=O)N(C2CCC(=O)NC2=O)C3=O)nn1` (some centres undefined), for which the viability at 100 µM in the series with MCF7 amounted to 76.8%; with MDA-MB-231 it was 71.6%; in the series on SJSA-1, 85.9%; in the series on HepG2, 105%; in series [1], 98.7%.

Regarding `C[C@H](CC(=O)C[C@@H](C)[C@H]1C[C@H](O)[C@@]2(C)C3=C(C(=O)C[C@]12C)[C@@]1(C)CCC(=O)C(C)(C)[C@@H]1C[C@@H]3O)C(=O)NCc1cn(CCOCCNc2cccc3c2C(=O)N(C2CCC(=O)NC2=O)C3=O)nn1` (some centres undefined), the viability at 100 µM stood at 60.7% in the series with MCF7; 48.6% with MDA-MB-231; 88.2% with SJSA-1; 85.8% in the series with HepG2; 83.2% in series [1].

Turning to `C[C@H](CC(=O)C[C@@H](C)[C@H]1C[C@H](O)[C@@]2(C)C3=C(C(=O)C[C@]12C)[C@@]1(C)CCC(=O)C(C)(C)[C@@H]1C[C@@H]3O)C(=O)NCCOCCOCCOCCn1cc(CNc2cccc3c2C(=O)N(C2CCC(=O)NC2=O)C3=O)nn1` (some centres undefined), the viability at 100 µM stood at 65.5% in the series with MCF7; 69.7% in the series on MDA-MB-231; 83.4% with SJSA-1; 81.3% in the series on HepG2; 97.2% in series [1].

For `C[C@H](CC(=O)C[C@@H](C)[C@H]1C[C@H](O)[C@@]2(C)C3=C(C(=O)C[C@]12C)[C@@]1(C)CCC(=O)C(C)(C)[C@@H]1C[C@@H]3O)C(=O)NCc1cn(CCOCCOCCOCCOCCNc2cccc3c2C(=O)N(C2CCC(=O)NC2=O)C3=O)nn1` (some centres undefined), the viability at 100 µM in the series with MCF7 turned out to be 57.2%; in the series on MDA-MB-231 it was 57.9%; in the series with SJSA-1 it was 95.9%; with HepG2, 125%; in series [1] it was 98.3%.

`C[C@H](CC(=O)C[C@@H](C)[C@H]1C[C@H](O)[C@@]2(C)C3=C(C(=O)C[C@]12C)[C@@]1(C)CCC(=O)C(C)(C)[C@@H]1C[C@@H]3O)C(=O)NCc1cn(CCCNc2cccc3c2C(=O)N(C2CCC(=O)NC2=O)C3=O)nn1` (some centres undefined): the viability at 100 µM with MCF7 is 65.9%; in the series on MDA-MB-231, 73.8%; with SJSA-1, 79.6%; in the series with HepG2, 58.4%; in series [1], 96.7%.

On to `Cc1ncsc1-c1ccc([C@H](C)NC(=O)[C@@H]2C[C@@H](O)CN2C(=O)[C@@H](NC(=O)CCCc2cn(CCOCCOCCNC(=O)[C@H](C)CC(=O)C[C@@H](C)[C@H]3C[C@H](O)[C@@]4(C)C5=C(C(=O)C[C@]34C)[C@@]3(C)CCC(=O)C(C)(C)[C@@H]3C[C@@H]5O)nn2)C(C)(C)C)cc1`, for which the viability at 100 µM in the series on MCF7 is 40.8%; in the series on MDA-MB-231 it was 37.7%; with SJSA-1 it was 74.1%; with HepG2 it was 84.6%; in series [1] it was 101%.

As for `C[C@H](CC(=O)C[C@@H](C)[C@H]1C[C@H](O)[C@@]2(C)C3=C(C(=O)C[C@]12C)[C@@]1(C)CCC(=O)C(C)(C)[C@@H]1C[C@@H]3O)C(=O)NCc1cn(CCOCCOCCNc2cccc3c2C(=O)N(C2CCC(=O)NC2=O)C3=O)nn1` (some centres undefined), the viability at 100 µM in the series on MCF7 was 71.2%; in the series with MDA-MB-231, 63.1%; in the series with SJSA-1, 60.6%; with HepG2 it was 88.8%; in series [1] it was 78.2%.

In the case of `C[C@H](CC(=O)C[C@@H](C)[C@H]1C[C@H](O)[C@@]2(C)C3=C(C(=O)C[C@]12C)[C@@]1(C)CCC(=O)C(C)(C)[C@@H]1C[C@@H]3O)C(=O)NCCOCCn1cc(CNc2cccc3c2C(=O)N(C2CCC(=O)NC2=O)C3=O)nn1` (some centres undefined), the viability at 100 µM amounted to 81.8% with MCF7; 73.1% in the series on MDA-MB-231; 92.2% in the series with SJSA-1; 110% in the series on HepG2; 99.2% in series [1].

As to `Cc1ncsc1-c1ccc([C@H](C)NC(=O)[C@@H]2C[C@@H](O)CN2C(=O)[C@@H](NC(=O)CCCCc2cn(CCCNC(=O)[C@H](C)CC(=O)C[C@@H](C)[C@H]3C[C@H](O)[C@@]4(C)C5=C(C(=O)C[C@]34C)[C@@]3(C)CCC(=O)C(C)(C)[C@@H]3C[C@@H]5O)nn2)C(C)(C)C)cc1`, the viability at 100 µM came out at 57.9% with MCF7; 97.5% in the series on MDA-MB-231; 84.6% with SJSA-1; 96.5% in the series on HepG2; 102% in series [1].

As to `C[C@H](CC(=O)C[C@@H](C)[C@H]1C[C@H](O)[C@@]2(C)C3=C(C(=O)C[C@]12C)[C@@]1(C)CCC(=O)C(C)(C)[C@@H]1C[C@@H]3O)C(=O)NCCCn1cc(CNc2cccc3c2C(=O)N(C2CCC(=O)NC2=O)C3=O)nn1` (some centres undefined), the viability at 100 µM in the series on MCF7 was 70.5%; with MDA-MB-231, 56.2%; with SJSA-1, 75.7%; in the series on HepG2, 116%; in series [1], 94.9%.

For the origin of these results see ChEMBL document CHEMBL5500349, “Discovery of ganoderic acid A (GAA) PROTACs as MDM2 protein degraders for the treatment of breast cancer” (Eur J Med Chem, 2024).
